According to patent US12331069B2, “DOT1L degraders and uses thereof” (DANA-FARBER CANCER INSTITUTE, INC., priority 2019, dated 2025):

Columns and labels:
RPN13 = RPN13 (Homo sapiens, UniProt Q16186); assay: Biochemical (alpha signal) assay for inhibitors that disrupt the binding of RPN13 with poly-ubiquitinylation; conditions: FIG. 9C
Excerpt: The assay was optimized based on concentrations of the target inhibitors, concentrations of compound RA190, and in view of the alpha signal. The conditions for the biochemical assay are recognized by those of ordinary skill in the art.

[1] = tested on: Molm13 PA and Molm13 RE (acute myeloid leukemia) cells; assay: Relative cell growth by cell count, Molm13 PA and Molm13 RE cells; type: cell-based; conditions: concentrations between 0 and 10 μM, after 10 days, effect with increased concentration
Experimental: (§1) FIGS. 12A-12D show a Western blot of an assay where MOLM 13 cells were treated with exemplary DOT1L degraders and then the cell numbers were counted over time to confirm the cellular activity of the cells. FIGS. 12A-12D show the relative cell growth (%), based on a cell count of acute myeloid leukemia cells upon the treatment of Molm13 PA cells, Molm13 RE cells, and human leukemia (HL60; as negative control) cells with exemplary DOT1L degraders at various concentrations in for 10 days.
(§2) Molm13 PA (acute myeloid leukemia), Molm13 RE (acute myeloid leukemia), and HL60 (human leukemia) cells were treated with exemplary thalidomide-based, DOT1L degrader compounds DOT1L-6, DOT1L-7, DOT1L-8, and RA190 at various concentrations between 0 and 10 μM. The relative cell growth of the Molm13 PA, Molm13 RE, and HL60 cells was measured to analyze cellular activity after 10 days.

[2] = tested on: HL60 (human leukemia) cells; assay: Relative cell growth by cell count, HL60 cells (negative control line); type: cell-based; conditions: concentrations between 0 and 10 μM, after 10 days, effect with increased concentration
Experimental: as §1, §2

RPN13, sequence (Q16186 whole entry): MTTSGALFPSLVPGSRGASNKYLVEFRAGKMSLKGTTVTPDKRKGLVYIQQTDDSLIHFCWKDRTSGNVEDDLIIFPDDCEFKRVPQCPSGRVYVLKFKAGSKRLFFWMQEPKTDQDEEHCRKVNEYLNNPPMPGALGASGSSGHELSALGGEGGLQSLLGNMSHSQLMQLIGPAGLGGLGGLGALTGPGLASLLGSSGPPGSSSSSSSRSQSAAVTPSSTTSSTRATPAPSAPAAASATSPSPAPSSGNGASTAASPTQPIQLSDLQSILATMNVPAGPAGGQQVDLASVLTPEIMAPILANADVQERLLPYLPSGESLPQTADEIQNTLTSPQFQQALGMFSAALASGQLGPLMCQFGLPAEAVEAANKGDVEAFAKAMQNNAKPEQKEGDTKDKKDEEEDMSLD

Structure (SMILES): N[C@@H](Cc1ccccc1)C(=O)N1C/C(=C\c2ccc(Cl)c(Cl)c2)C(=O)/C(=C/c2ccc(Cl)c(Cl)c2)C1 [RA190]
- Disruption of the binding of RPN13 with poly-ubiquitinylation (RPN13): can disrupt the binding
- Relative cell growth (based on cell count) [1]: reduced cell growth
- Relative cell growth (based on cell count) [2]: reduced cell growth
